From patent publication US11873303B2, “Substituted pyrazoles as type II IRAK inhibitors” (Merck Patent GmbH, priority 2018, dated 2024)

Experiments:
[1] = biological target: T1, IRAK1 (human purified recombinant enzyme His-TEV-IRAK1 (194-712)) (Homo sapiens, UniProt P51617); experiment: IRAK1 enzymatic assay (ADP-Glo luminescence); format: biochemical; settings: human recombinant IRAK1, ATP 1 μM
T1 construct: His-TEV-IRAK1 (194-712); His (N); TEV cleavage site (N)
Method: IRAK1 is a human purified recombinant enzyme (His-TEV-IRAK1 (194-712)). In this assay, IRAK1 hydrolysed ATP and autophosphorylated. Measurement of IRAK-1 inhibition was performed in 384-well format based on luminescence assay (ADP-Glo™ Kinase Assay from Promega). Purified human recombinant IRAK1 (0.3 μg/ml) and serial diluted compounds in DMSO (range of concentration from 10 μM to 0.5 nM) or controls (1% DMSO) were incubated for 15 minutes at RT in assay buffer containing 50 mM Hepes pH 7.0, Fatty acid-free BSA 0.1%, Dithiothreitol (DTT) 2 mM, MgCl2 10 mM, EGTA 0.5 mM, Triton X-100 0.01%. The kinase reaction was then initiated by the addition of ATP at a concentration of 1 μM. After 2 hours of incubation at RT, the reaction was stopped and the unconsumed ATP depleted by the addition of ADP-Glo™ Reagent according to supplier instructions. After 40 minutes of incubation at RT, the Kinase Detection Reagent was then added to the assay plate according to supplier instructions. After 20 minutes of incubation at RT, the luminescence signal was measured with a luminometer (PerkinElmer Envision or equivalent reader).

[2] = biological target: T2, IRAK4 (human purified recombinant enzyme His-TEV-IRAK4 (1-460)) (Homo sapiens, UniProt Q9NWZ3); experiment: IRAK4 enzymatic assay (ADP-Glo luminescence); format: biochemical; settings: human recombinant IRAK4, ATP 2 μM, STK1-biotin peptide
T2 construct: His-TEV-IRAK4 (1-460); His (N); TEV cleavage site (N)
T2 sequence (Q9NWZ3 1-460): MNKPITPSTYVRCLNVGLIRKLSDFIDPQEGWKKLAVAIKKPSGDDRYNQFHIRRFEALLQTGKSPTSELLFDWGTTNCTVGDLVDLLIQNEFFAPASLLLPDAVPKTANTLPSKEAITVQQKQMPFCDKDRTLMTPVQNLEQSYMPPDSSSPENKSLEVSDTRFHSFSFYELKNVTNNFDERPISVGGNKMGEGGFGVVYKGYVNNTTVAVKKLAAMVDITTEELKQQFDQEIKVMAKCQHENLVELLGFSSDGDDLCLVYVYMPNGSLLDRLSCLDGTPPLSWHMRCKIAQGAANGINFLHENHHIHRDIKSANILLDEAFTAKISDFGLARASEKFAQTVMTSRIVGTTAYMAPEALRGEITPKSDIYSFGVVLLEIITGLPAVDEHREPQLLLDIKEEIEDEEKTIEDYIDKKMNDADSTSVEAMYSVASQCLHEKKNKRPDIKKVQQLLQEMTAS
Method: IRAK4 is a human purified recombinant enzyme (His-TEV-IRAK4 (1-460)). In this assay, IRAK4 hydrolysed ATP, autophosphorylated and phosphorylated a Serine/Threonine generic peptidic substrate (STK: 61ST1BLC from CisBio International). Measurement of IRAK-4 inhibition was performed in 384-well format based on a luminescence assay (ADP-Glo™ Kinase Assay from Promega). Purified human recombinant IRAK4 (0.3 μg/ml) and serial diluted compounds in DMSO (range of concentration from 10 μM to 0.5 nM) or controls (1% DMSO) were incubated for 15 minutes at RT in assay buffer containing 50 mM Hepes pH 7.0, Fatty acid-free BSA 0.1%, Dithiothreitol (DTT) 2 mM, MgCl2 10 mM, EGTA 0.5 mM, Triton X-100 0.01%, MnCl2 5 mM. The kinase reaction was then initiated by the addition of ATP (2 μM) and the peptidic substrate STK1-biotin peptide (300 nM). After 2 hours of incubation at RT, the reaction was stopped and the unconsumed ATP depleted by the addition of ADP-Glo™ Reagent according to supplier instructions. After 40 minutes of incubation at RT, the Kinase Detection Reagent was then added to the assay plate according to supplier instructions. After 20 minutes of incubation at RT, the luminescence signal was measured with a plate-reading luminometer (PerkinElmer Envision or equivalent reader).

[3] = system: TLR7 induced IL-6 secretion in human mononuclear cells (PBMC's); experiment: TLR7 induced IL-6 in human PBMC's; format: cell-based; settings: TLR7 ligand 2 uM overnight, IL-6 AlphaLISA
Method: TLR7 Induced IL-6 in Human PBMC's
Human PBMC assay was used as one of the functional assays to monitor the activity of IRAK1 and IRAK4 small molecule inhibitors on TLR7 induced IL-6 secretion in human mononuclear cells (PBMC's). Human PBMCs were prepared from buffy coats (whole blood enriched with leukocytes and platelets) obtained from healthy volunteers used either fresh or frozen were plated in assay media (RPMI+2% P/S/L-glu+10% HI-FBS) and pre-treated with compounds in DMSO/media (range of concentrations from 25 uM to 0.4 nM) or controls (0.25% DMSO) for 30 minutes at 37° C. in assay media. Following pre-treatment with IRAK1 and IRAK4 inhibitors, PBMC's were stimulated with TLR7 specific ligand (2 uM) overnight (16-18 hrs) at 37° C. After incubation supernatant was transferred to 384 well PE AlphaPlate-384 and IL-6 was quantified using Perkin Elmer IL-6 Alpha LISA kit (AL223C). Plates were read on an Envision® plate reader with Alpha Technology®.

T1 sequence (P51617 194-712): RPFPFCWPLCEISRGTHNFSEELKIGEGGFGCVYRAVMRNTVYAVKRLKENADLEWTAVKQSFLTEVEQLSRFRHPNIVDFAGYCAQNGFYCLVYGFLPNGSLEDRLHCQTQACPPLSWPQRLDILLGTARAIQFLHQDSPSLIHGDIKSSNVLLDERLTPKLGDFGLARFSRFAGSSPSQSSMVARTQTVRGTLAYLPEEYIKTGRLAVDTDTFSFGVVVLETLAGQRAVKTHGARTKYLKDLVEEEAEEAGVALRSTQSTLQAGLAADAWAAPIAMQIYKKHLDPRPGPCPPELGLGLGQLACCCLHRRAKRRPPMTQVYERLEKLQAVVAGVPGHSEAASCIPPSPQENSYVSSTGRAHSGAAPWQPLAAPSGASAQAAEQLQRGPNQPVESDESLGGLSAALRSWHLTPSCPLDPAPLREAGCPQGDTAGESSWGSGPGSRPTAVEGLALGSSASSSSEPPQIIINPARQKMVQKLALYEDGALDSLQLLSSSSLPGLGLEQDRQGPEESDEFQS

| Structure (SMILES) | IC50 [1] | IC50 [2] | melting point | IC50 [3] |
| --- | --- | --- | --- | --- |
| CC(C)c1ccc(-n2nc(C(C)(C)C)cc2NC(=O)Cc2ccc(-c3nn(C)c4ncnc(N)c34)cc2)cc1 [Example 15, 2-[4-(4-Amino-1-methyl-1H-pyrazolo[3,4-d]pyrimidin-3-yl)-phenyl]-N-[5-tert-butyl-2-(4-isopropyl-phenyl)-2H-pyrazol-3-yl]-acetamide] | < 100 nM | 1000 to 5000 nM | – | 1000 to 5000 nM |
| CC(C)c1ccc(-n2nc(C(C)(C)C)cc2NC(=O)Cc2ccc(-c3nn(C)c4ncnc(N)c34)cc2F)cc1 [Example 16, 2-[4-(4-Amino-1-methyl-1H-pyrazolo[3,4-d]pyrimidin-3-yl)-2-fluoro-phenyl]-N-[5-tert-butyl-2-(4-isopropyl-phenyl)-2H-pyrazol-3-yl]-acetamide] | < 100 nM | 100 to 1000 nM | – | 1000 to 5000 nM |
| Cc1ccc(-n2nc(C3(C)COC3)cc2NC(=O)Nc2ccc(-c3nn(C)c4ncnc(N)c34)cc2Cl)cc1 [Example 18, 1-(4-{4-amino-1-methyl-1H-pyrazolo[3,4-d]pyrimidin-3-yl}-2-chlorophenyl)-3-[3-(3-methyloxetan-3-yl)-1-(4-methylphenyl)-1H-pyrazol-5-yl]urea] | < 100 nM | 1000 to 5000 nM | 170 to 172 °C | 100 to 1000 nM |
| Cc1ccc(-n2nc(C(C)(C)CO)cc2NC(=O)Nc2ccc(-c3csc4ncnc(N)c34)cc2Cl)cc1 [Example 21, 1-(4-{4-aminothieno[2,3-d]pyrimidin-5-yl}-2-chlorophenyl)-3-[3-(1-hydroxy-2-methylpropan-2-yl)-1-(4-methylphenyl)-1H-pyrazol-5-yl]urea] | 100 to 1000 nM | > 5000 nM | – | > 5000 nM |
| Cc1ccc(-n2nc(C(C)(C)C)cc2NC(=O)Nc2ccc(-c3nn(C)c4ccnc(N)c34)cc2F)cc1 [Example 26, 1-[4-(4-Amino-1-methyl-1H-pyrazolo[4,3-c]pyridin-3-yl)-2-fluoro-phenyl]-3-(5-tert-butyl-2-p-tolyl-2H-pyrazol-3-yl)-urea] | < 100 nM | 100 to 1000 nM | – | < 100 nM |

Continued, in another order:

| IC50 [1] | IC50 [2] | melting point | Structure (SMILES) | IC50 [3] |
| --- | --- | --- | --- | --- |
| < 100 nM | 1000 to 5000 nM | 192 to 194 °C | Cc1ccc(-n2nc(C(C)(C)CO)cc2NC(=O)Nc2ccc(-c3nn(C)c4ncnc(N)c34)cc2Cl)cc1 [Example 17, 1-(4-{4-amino-1-methyl-1H-pyrazolo[3,4-d]pyrimidin-3-yl}-2-chlorophenyl)-3-[3-(1-hydroxy-2-methylpropan-2-yl)-1-(4-methylphenyl)-1H-pyrazol-5-yl]urea] | < 100 nM |
| < 100 nM | 100 to 1000 nM | – | Cc1ccc(-n2nc(C(C)(C)C)cc2NC(=O)C(O)c2ccc(-c3nn(C)c4ncnc(N)c34)cc2)cc1 (centres unmarked) [Example 19, 2-[4-(4-Amino-1-methyl-1H-pyrazolo[3,4-d]pyrimidin-3-yl)-phenyl]-N-(5-tert-butyl-2-p-tolyl-2H-pyrazol-3-yl)-2-hydroxy-acetamide] | 100 to 1000 nM |
| < 100 nM | < 100 nM | – | Cc1ccc(-n2nc(C(C)(C)C)cc2NC(=O)C(=O)c2ccc(-c3nn(C)c4ncnc(N)c34)cc2)cc1 [Example 20, 2-[4-(4-Amino-1-methyl-1H-pyrazolo[3,4-d]pyrimidin-3-yl)-phenyl]-N-(5-tert-butyl-2-p-tolyl-2H-pyrazol-3-yl)-2-oxo-acetamide] | 1000 to 5000 nM |
| 100 to 1000 nM | 1000 to 5000 nM | – | Cc1ccc(-n2nc(C(C)(C)C#N)cc2NC(=O)Nc2ccc(-c3csc4ncnc(N)c34)cc2Cl)cc1 [Example 22, 1-[4-(4-Amino-thieno[2,3-d]pyrimidin-5-yl)-2-chloro-phenyl]-3-[5-(cyano-dimethyl-methyl)-2-p-tolyl-2H-pyrazol-3-yl]-urea] | > 5000 nM |
| < 100 nM | 1000 to 5000 nM | – | Cc1ccc(-n2nc(C(C)(C)C)cc2NC(=O)Nc2ccc(-c3csc4ncnc(N)c34)c(F)c2Cl)cc1 [Example 23, 1-[4-(4-Amino-thieno[2,3-d]pyrimidin-5-yl)-2-chloro-3-fluoro-phenyl]-3-(5-tert-butyl-2-p-tolyl-2H-pyrazol-3-yl)-urea] | < 100 nM |
| < 100 nM | 100 to 1000 nM | – | Cc1ccc(-n2nc(C(C)(C)C(F)(F)F)cc2NC(=O)Nc2ccc(-c3csc4ncnc(N)c34)cc2Cl)cc1 [Example 24, 1-[4-(4-Amino-thieno[2,3-d]pyrimidin-5-yl)-2-chloro-phenyl]-3-[2-p-tolyl-5-(2,2,2-trifluoro-1,1-dimethyl-ethyl)-2H-pyrazol-3-yl]-urea] | < 100 nM |
| 100 to 1000 nM | 1000 to 5000 nM | 228 to 230 °C | Cc1ccc(-n2nc(C(C)(C)C)cc2NC(=O)N[C@H]2CC[C@@H](c3cn(C)c4ncnc(N)c43)CC2)cc1 [Example 27, 3-[3-tert-butyl-1-(4-methylphenyl)-1H-pyrazol-5-yl]-1-[(1s,4s)-4-{4-amino-7-methyl-7H-pyrrolo[2,3-d]pyrimidin-5-yl}cyclohexyl]urea] | – |
